Values quoted from earlier work, collected in patent US20200390726A1, “Compositions for Improved Neuroprotective Effects and Methods of Making Same” (Guardion Health Sciences, LLC, priority 2019, published 2020).

Tested on: glaucoma patients
Settings: literature, anthocyanins 50 mg daily, PEA 600 mg per day, Mirtogenol dose not given

CCCCCCCCCCCCCCCC(=O)NCCO [PEA, Palmitoylethanolamide]
effect on visual field (citicoline 500 to 1,000 mg daily): improvement in the visual field
effect on intraocular pressure (IOP) (forskolin 1% eye drops): lowering of IOP
